Measured values taken from patent publication US4515811A, “Process for the resolution of d,1 2-(6-methoxy-2-naphthyl)propionic acid” (Syntex Corporation, priority 1980, dated 1985).
Counter-ions that a name gives are not always drawn. Like-named read-outs stand apart in the source and are kept apart here.

Assays:
[1] = tested on: carrageenin-induced paw inflammation in the rat; settings: female rats, relative to phenylbutazone = 1, molar basis
Procedure: The anti-inflammatory activity of each of the compounds listed below is compared with the activity of phenylbutazone by means of the carrageenin-induced rat paw inflammation test described below.
TEST FOR ANTI-INFLAMMATORY ACTIVITY UTILIZING CARRAGEENIN-INDUCED PAW INFLAMMATION IN THE RAT
Materials and Methods--Female rats weighing 80-90 grams are used. The test materials are given at hour 0 orally by gavage in 1 ml. aqueous vehicle. At hour 1, 0.05 ml. of a 1% solution (in 0.9% NaCl) of carrageenin is injected into the right hind paw. This injection causes an inflammation of the paw. The rats are sacrificed at hour 4, at which time both hind paws are removed and weighed separately.
End point: % increase in paw size calculated as follows: [formula]

[2] = Solubility of resolving agent in water; type: physicochemical
[3] = Example 32, oral gavage at hour 0, carrageenin at hour 1, sacrificed hour 4
[4] = Example 33, test of Example 32 repeated, oral

| Compound | Oral Anti-Inflammatory Activity (on a molar equivalent basis) (Phenylbutazone = 1) [1, 3] | also measured |
| --- | --- | --- |
| COc1ccc2cc([C@H](C)C(=O)O)ccc2c1 [N-cyclohexyl-D-glucamine salt of d 2-(6-methoxy-2-naphthyl)p] [N-cyclohexyl-D-glucamine salt of d 2-(6-methoxy-2-naphthyl)propionic acid] | 11 |  |
| COc1ccc2cc([C@H](C)C(=O)O)ccc2c1 [N-cyclooctyl-D-glucamine salt of d 2-(6-methoxy-2-naphthyl)p] [N-cyclooctyl-D-glucamine salt of d 2-(6-methoxy-2-naphthyl)propionic acid] |  | Oral Anti-Inflammatory Activity (on a molar equivalent basis) (Phenylbutazone = 1) [1, 4]: 20 |
| COc1ccc2cc([C@H](C)C(=O)O)ccc2c1 [N-cyclopropyl-D-glucamine salt of d 2-(6-methoxy-2-naphthyl)] [N-cyclopropyl-D-glucamine salt of d 2-(6-methoxy-2-naphthyl)propionic acid] |  | Oral Anti-Inflammatory Activity (on a molar equivalent basis) (Phenylbutazone = 1) [1, 4]: 9 |
| COc1ccc2cc([C@H](C)C(=O)O)ccc2c1 [N-ethyl-D-glucamine salt of d 2-(6-methoxy-2-naphthyl)propio] [N-ethyl-D-glucamine salt of d 2-(6-methoxy-2-naphthyl)propionic acid] | 17 |  |
| COc1ccc2cc([C@H](C)C(=O)O)ccc2c1 [N-n-butyl-D-glucamine salt of d 2-(6-methoxy-2-naphthyl)prop] [N-n-butyl-D-glucamine salt of d 2-(6-methoxy-2-naphthyl)propionic acid] | 5 |  |
| COc1ccc2cc([C@H](C)C(=O)O)ccc2c1 [N-n-octadecyl-D-glucamine salt of d 2-(6-methoxy-2-naphthyl)] [N-n-octadecyl-D-glucamine salt of d 2-(6-methoxy-2-naphthyl)propionic acid] | 7 |  |
| COc1ccc2cc([C@H](C)C(=O)O)ccc2c1 [N-n-octyl-D-glucamine salt of d 2-(6-methoxy-2-naphthyl)prop] [N-n-octyl-D-glucamine salt of d 2-(6-methoxy-2-naphthyl)propionic acid] | 17 |  |
| CCCCCCCCNC[C@H](O)[C@@H](O)[C@H](O)[C@H](O)CO [N-n-octyl-D-glucamine] |  | solubility in water (in words) [2]: substantially insoluble in water |
| COc1ccc2cc([C@H](C)C(=O)O)ccc2c1 [N-n-propyl-D-glucamine salt of d 2-(6-methoxy-2-naphthyl)pro] [N-n-propyl-D-glucamine salt of d 2-(6-methoxy-2-naphthyl)propionic acid] | 20 |  |
